Source: patent US11596639B2, “Substituted indole Mcl-1 inhibitors” (Vanderbilt University, priority 2016, dated 2023)
pKi: −log10 of the molar value. Like-named read-outs stand apart in the source and are kept apart here.

Columns and labels:
Mcl-1 = Mcl-1 (Homo sapiens (Human), UniProt Q07820); test: Fluorescence polarization anisotropy (FPA) competition assay, FITC-Bak or FITC-Bim BH3 peptide; type: binding; settings: read-out: Ki for Inhibition of Mcl-1 by FPA assay
[1] = tested on: H929 human cancer cell lines; test: Cellular viability / proliferation (Cell TiterGlo, 72 h); type: cell-based
Summary of the method: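 Top dose 50 μM, serially diluted 2-fold, applied one day after seeding (1,000 cells/well, 10% FBS), DMSO below 1%.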

[2] = Homo sapiens, NCI-H929, 72 h, read-out: GI50 on cellular proliferation of H929 human cancer cell lines, H929 cells, 72 h, Cell TiterGlo, 10% FBS

Chain of Mcl-1 (Q07820 172-327): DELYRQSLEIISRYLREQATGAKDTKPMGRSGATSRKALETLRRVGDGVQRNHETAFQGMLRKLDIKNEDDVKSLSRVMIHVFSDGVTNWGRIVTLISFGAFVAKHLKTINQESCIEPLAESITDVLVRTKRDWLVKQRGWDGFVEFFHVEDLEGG

Row | Compound | pKi (Mcl-1) | GI50 [1, 2] [nM] | GI50 ([1]; H929 cells, 72 h, Cell TiterGlo, 10% FBS, read-out: GI50 on cellular proliferation of H929 human cancer cell lines) [nM] | GI50 ([1]; read-out: GI50 on cellular proliferation of H929 human cancer cell lines, H929 cells, 72 h, Cell TiterGlo, 10% FBS) [nM]
1 | Cc1cc(OCCCc2c3n(c4c(-c5c(C)nn(C)c5C)c(Cl)ccc24)[C@H](C)CN(c2cccc4c2cc(C(=O)O)n4Cc2ccccn2)C3=O)cc(C)c1Cl [Example 352, (R)-4-(7-chloro-10-(3-(4-chloro-3,5-dimethylphenoxy)propyl)-4-methyl-1-oxo-6-(1,3,5-trimethyl-1H-pyrazol-4-yl)-3,4-dihydropyrazino[1,2-a]indol-2(1H)-yl)-1-(pyridin-2-ylmethyl)-1H-indole-2-carboxylic acid] | 8.55 | 5100 | – | –
2 | Cc1noc(-c2ccc3c(c2)c(N2C[C@@H](C)n4c(c(CCCOc5cc(C)c(Cl)c(C)c5)c5ccc(Cl)c(-c6c(C)ncnc6C)c54)C2=O)cn3C)n1 [Example 395, (R)-7-Chloro-10-(3-(4-chloro-3,5-dimethylphenoxy)propyl)-6-(4,6-dimethylpyrimidin-5-yl)-4-methyl-2-(1-methyl-5-(3-methyl-1,2,4-oxadiazol-5-yl)-1H-indol-3-yl)-3,4-dihydropyrazino[1,2-a]indol-1(2H)-one] | 8.66 | 860 | – | –
3 | Cc1ccnc(Cn2c(C(=O)O)cc3cc(C)cc(N4C[C@@H](C)n5c(c(CCCOc6cc(C)c(Cl)c(C)c6)c6ccc(Cl)c(-c7c(C)nn(C)c7C)c65)C4=O)c32)c1 [Example 456, (R)-7-(7-Chloro-10-(3-(4-chloro-3,5-dimethylphenoxy)propyl)-4-methyl-1-oxo-6-(1,3,5-trimethyl-1H-pyrazol-4-yl)-3,4-dihydropyrazino[1,2-a]indol-2(1H)-yl)-5-methyl-1-((4-methylpyridin-2-yl)methyl)-1H-indole-2-carboxylic acid] | > 9.00 | < 200 | – | –
4 | Cc1cc(OCCCc2c3n(c4c(-c5c(C)nc(CN6CCCC6)nc5C)c(Cl)ccc24)CCCN(c2cn(C)c4ccc(C(=O)O)cc24)C3=O)cc(C)c1Cl [Example 373] | 8.80 | – | 1200 | –
5 | COc1cc(N2C[C@@H](C)n3c(c(CCCOc4cc(C)c(Cl)c(C)c4)c4ccc(Cl)c(-c5c(C)nn(C)c5C)c43)C2=O)c2c(c1)cc(C(=O)O)n2C [Example 342, (R)-7-(7-Chloro-10-(3-(4-chloro-3,5-dimethylphenoxy)propyl)-4-methyl-1-oxo-6-(1,3,5-trimethyl-1H-pyrazol-4-yl)-3,4-dihydropyrazino[1,2-a]indol-2(1H)-yl)-5-methoxy-1-methyl-1H-indole-2-carboxylic acid] | > 9.00 | 230 | – | –
6 | Cc1cccc(OCCCc2c3n(c4c(-c5c(C)nn(C)c5C)c(Cl)ccc24)[C@H](C)CN(c2cn(C)c4ccc(C(=O)O)cc24)C3=O)c1 [Example 405, (R)-3-(7-Chloro-4-methyl-1-oxo-10-(3-(m-tolyloxy)propyl)-6-(1,3,5-trimethyl-1H-pyrazol-4-yl)-3,4-dihydropyrazino[1,2-a]indol-2(1H)-yl)-1-methyl-1H-indole-5-carboxylic acid] | > 9.00 | 460 | – | –
7 | Cc1cc(OCCCc2c3n(c4c(-c5c(C)ncnc5C)c(Cl)ccc24)[C@H](C)CN(c2cn(C)c4ccc(C(=O)O)cc24)C3=O)cc(C)c1Cl [Example 177, 3-[(4R)-7-chloro-10-[3-(4-chloro-3,5-dimethyl-phenoxy)propyl]-6-(4,6-dimethylpyrimidin-5-yl)-4-methyl-1-oxo-3,4-dihydropyrazino[1,2-a]indol-2-yl]-1-methyl-indole-5-carboxylic acid] | > 9.00 | 270 | – | –
8 | Cc1cc(OCCCc2c3n(c4c(-c5c(C)n[nH]c5C)c(Cl)ccc24)CCCN(c2cc(C(=O)O)c4ccn(C)c4c2)C3=O)cc(C)c1Cl [Example 58, 6-(8-Chloro-11-(3-(4-chloro-3,5-dimethylphenoxy)propyl)-7-(3,5-dimethyl-1H-pyrazol-4-yl)-1-oxo-4,5-dihydro-1H-[1,4]diazepino[1,2-a]indol-2(3H)-yl)-1-methyl-1H-indole-4-carboxylic acid] | > 9.00 | 3000 | – | –
9 | Cc1cc(OCCCc2c3n(c4c(-c5c(C)ncnc5C)c(Cl)ccc24)[C@H](C)CN(c2cccc4c(C(=O)O)cn(C)c24)C3=O)cc(C)c1Cl [Example 168, 7-[(4R)-7-chloro-10-[3-(4-chloro-3,5-dimethyl-phenoxy)propyl]-6-(4,6-dimethylpyrimidin-5-yl)-4-methyl-1-oxo-3,4-dihydropyrazino[1,2-a]indol-2-yl]-1-methyl-indole-3-carboxylic acid] | 8.96 | 1000 | – | –
10 | Cc1cc(N2C[C@@H](C)n3c(c(CCCOc4cc(C)c(Cl)c(C)c4)c4ccc(Cl)c(-c5c(C)nn(C)c5C)c43)C2=O)c2cc(C(=O)O)n(C)c2c1 [Example 317, (R)-4-(7-Chloro-10-(3-(4-chloro-3,5-dimethylphenoxy)propyl)-4-methyl-1-oxo-6-(1,3,5-trimethyl-1H-pyrazol-4-yl)-3,4-dihydropyrazino[1,2-a]indol-2(1H)-yl)-1,6-dimethyl-1H-indole-2-carboxylic acid] | > 9.00 | 720 | – | –
11 | Cc1cc(N2C[C@@H](C)n3c(c(CCCOc4cc(C)c(Cl)c(C)c4)c4ccc(Cl)c(-c5c(C)ncnc5C)c43)C2=O)c2c(c1)c(C)c(C(=O)O)n2C [Example 339, (R)-7-(7-Chloro-10-(3-(4-chloro-3,5-dimethylphenoxy)propyl)-6-(4,6-dimethylpyrimidin-5-yl)-4-methyl-1-oxo-3,4-dihydropyrazino[1,2-a]indol-2(1H)-yl)-1,3,5-trimethyl-1H-indole-2-carboxylic acid] | > 9.00 | 320 | – | –
12 | CCn1nc(C(=O)O)c2cccc(N3C[C@@H](C)n4c(c(CCCOc5cc(C)c(Cl)c(C)c5)c5ccc(Cl)c(-c6c(C)nn(C)c6C)c54)C3=O)c21 [Example 118, (R)-7-(7-chloro-10-(3-(4-chloro-3,5-dimethylphenoxy)propyl)-4-methyl-1-oxo-6-(1,3,5-trimethyl-1H-pyrazol-4-yl)-3,4-dihydropyrazino[1,2-a]indol-2(1H)-yl)-1-ethyl-1H-indazole-3-carboxylic acid] | > 9.00 | 820 | – | –
13 | Cc1cc(OCCCc2c3n(c4c(-c5c(C)nn(C)c5C)c(Cl)ccc24)CCCN(c2ccc4cnoc4c2)C3=O)cc(C)c1Cl [Example 64, 2-(1,2-benzoxazol-6-yl)-8-chloro-11-[3-(4-chloro-3,5-dimethyl-phenoxy)propyl]-7-(1,3,5-trimethylpyrazol-4-yl)-4,5-dihydro-3H-[1,4]diazepino[1,2-a]indol-1-one] | 8.32 | 5600 | – | –
14 | Cc1cc(OCCCc2c3n(c4c(-c5c(C)nn(C)c5C)c(Cl)ccc24)[C@H](C)CN(c2cccc4c2c(C(=O)O)nn4C)C3=O)cc(C)c1Cl [Example 126, 4-[(4R)-7-chloro-10-[3-(4-chloro-3,5-dimethyl-phenoxy)propyl]-4-methyl-1-oxo-6-(1,3,5-trimethylpyrazol-4-yl)-3,4-dihydropyrazino[1,2-a]indol-2-yl]-1-methyl-indazole-3-carboxylic acid] | > 9.00 | – | – | 5100
15 | Cc1cc(OCCCc2c3n(c4c(-c5c(C)nn(C)c5C)c(Cl)ccc24)[C@H](C)CN(c2cccc4ccn(C)c24)C3=O)cc(C)c1Cl [Example 234, (R)-7-Chloro-10-(3-(4-chloro-3,5-dimethylphenoxy)propyl)-4-methyl-2-(1-methyl-1H-indol-7-yl)-6-(1,3,5-trimethyl-1H-pyrazol-4-yl)-3,4-dihydropyrazino[1,2-a]indol-1(2H)-one] | > 9.00 | 1600 | – | –
